Laboratory results as given in patent publication US7148211B2, “Formulation for lipophilic agents” (Genzyme Corporation, priority 2002, dated 2006).

Tests used:
[1] = tested on: patients with advanced androgen-independent prostate cancer; assay: Study of Example 7 repeated for 1α-(OH)D2 in prostate cancer; type: in vivo, human; details: for progression of metastatic disease (CAT scans, X-rays, bone scans): phase two, after two years
Text: (§1) Patients with advanced androgen-independent prostate cancer participate in an open-labeled study of 1α,24-(OH)2D2. […] On admission to the study, patients begin a course of therapy with intravenous 1α,24-(OH)2D2 lasting 26 weeks, while discontinuing any previous use of calcium supplements, vitamin D supplements, and vitamin D hormone replacement therapies. During treatment, the patients are monitored at regular intervals for: (1) hypercalcemia, hyperphosphatemia, hypercalciuria, hyperphosphaturia and other toxicity; (2) evidence of changes in the progression of metastatic disease; and (3) compliance with the prescribed test drug dosage.
(§2) The study is conducted in two phases. During the first phase, the maximal tolerated dosage (MTD) of daily 1α,24-(OH)2D2 is determined by administering progressively higher dosages to successive groups of patients. All doses are administered in the morning before breakfast. The first group of patients is treated with 25.0 μg of 1α,24-(OH)2D2 (formulated with 2.5% w/w benzyl alcohol, 0.5%–2.5% w/w TWEEN™-20, and 20 ppm BHT). Subsequent groups of patients are treated with 50.0, 75.0 and 100.0 μg/day. Dosing is continued uninterrupted for the duration of the study unless serum calcium exceeds 11.6 mg/dL, or other toxicity of grade 3 or 4 is observed, in which case dosing is held in abeyance until resolution of the observed toxic effect(s) and then resumed at a level which has been decreased by 10.0 μg.
(§3) During the second phase, patients are treated with 1α,24-(OH)2D2 for 24 months at 0.5 and 1.0 times the MTD.
The study of Example 7 is repeated for the active vitamin D compound, 1α-(OH)D2 (formulated with 2.5% w/w benzyl alcohol, 0.5%–2.5% w/w TWEEN™-20, and 20 ppm BHT). […] In summary, the present invention provides an improved formulation for lipophilic drug agents that are only slightly soluble in an aqueous vehicle. The formulation in addition to the lipophilic drug agent includes a lipophilic antioxidant, a non-ionic solubilizer or surfactant, and optionally, an agent which is an organic solvent/ preservative.

[2] = tested on: elderly subjects with secondary hyperparathyroidism; assay: Open label study of elderly subjects with elevated blood PTH from secondary hyperparathyroidism; type: in vivo, human; details: oral 2.5 μg/day, twelve weeks
Description: Thirty elderly subjects with secondary hyperparathyroidism are enrolled in an open label study. The selected subjects have ages between 60 and 100 years and have elevated serum PTH levels (greater than the upper limit of young normal range). Subjects also have femoral neck osteopenia (femoral neck bone mineral density of […]).
Subjects are requested to keep a diet providing approximately 500 mg calcium per day without the use of calcium supplements. For a twelve week treatment period, subjects self-administer orally 2.5 μg/day 1α-OH-vitamin D2.(i.e., 2.5 μg doxercalciferol, 2.5% w/w benzyl alcohol, 0.5%–2.5% w/w TWEEN™-20, and 20 ppm BHT) At regular intervals throughout the treatment period, subjects are monitored for serum PTH levels, serum calcium and phosphorus, and urine calcium and phosphorus levels. Efficacy is evaluated by pre- and post-treatment comparisons of serum PTH levels. Safety is evaluated by serum and urine calcium and phosphorus values.

[3] = tested on: End Stage Renal Disease patients with secondary hyperparathyroidism; assay: Double-blind placebo-controlled study in ESRD hemodialysis patients exhibiting secondary hyperparathyroidism; type: in vivo, human
Text: Up to 120 ESRD (End Stage Renal Disease) patients undergoing chronic hemodialysis are studied in a multicenter, double-blind, placebo-controlled study based in two major U.S. metropolitan areas. The selected patients reside in two major metropolitan areas within the continental U.S., have ages between 20 and 75 years and have a history of secondary hyperparathyroidism. They have been on hemodialysis for at least four months, have a normal (or near normal) serum albumin, and have controlled serum phosphorus (often by using oral calcium phosphate binders).
On admission to the study, each patient is assigned at random to one of two treatment groups. One of these groups receives two consecutive 12-week courses of therapy with 1α-OH-vitamin D2 (doxercalciferol); the other receives a 12-week course of therapy with 1α-OH-vitamin D2 followed, without interruption, by a 12-week course of placebo therapy. Each patient discontinues any 1, α,25-(OH)2-vitamin D3 therapy for eight weeks prior to initiating 1α-OH-vitamin D2 therapy (daily dose of 4 μg doxercalciferol, formulated with 2.5% w/w benzyl alcohol, 0.5%–2.5% w/w TWEEN™-20, and 20 ppm BHT). Throughout this eight-week washout (or control) period and the two subsequent 12-week treatment periods, patients are monitored weekly for serum calcium and phosphorus. Serum intact PTH is monitored weekly or biweekly, and bone-specific serum markers, serum vitamin D metabolites, serum albumin, blood chemistries, hemoglobin and hematocrit are monitored at selected intervals.
During the study, patients undergo routine hemodialysis (three times per week) using a 1.24 mM calcium dialysate and ingest calcium phosphate binders (such as calcium carbonate or calcium acetate) in an amount sufficient to keep serum phosphate controlled (6.9 mg/dL). Patients who develop persistent mild hypercalcemia or mild hyperphosphatemia during the treatment periods reduce their 1α-OH-vitamin D2 to 4 μg three times per week (or lower). Patients who develop marked hypercalcemia or marked hyperphosphatemia immediately suspend treatment. Such patients are monitored at twice weekly intervals until the serum calcium or phosphorus is normalized, and resume 1α-OH-vitamin D2 dosing at a rate which is 4 μg three times per week (or lower).

[4] = tested on: patients with advanced androgen-independent prostate cancer; assay: Open-labeled clinical study of 1α,24-(OH)2D2 in advanced androgen-independent prostate cancer; type: in vivo; details: for progression of metastatic disease (CAT scans, X-rays, bone scans): second phase, after one and two years
Text: as §1, §2, §3

[5] = treated with the MTD for at least six months

Compound	progression of metastatic disease (CAT scans, X-rays, bone scans) ([1]; higher dosage)	progression of metastatic disease (CAT scans, X-rays, bone scans) ([1]; lower dosage)	bone pain associated with metastatic disease [1, 5]	PTH levels, pre- and post-treatment comparison [2]	incidence of hypercalcemia, hyperphosphatemia, hypercalciuria and hyperphosphaturia [2]	reduction of serum PTH levels (study conclusion) ([3]; ESRD patients)	mean serum PTH after initiation of dosing ([3]; ESRD patients, daily dose of 4 μg doxercalciferol formulated with benzyl alcohol, TWEEN-20, BHT)	safety compared with currently used therapies (study conclusion) ([3]; despite higher dosages and concurrent high levels of oral calcium phosphate binder)	serum levels of calcium and phosphorus ([3]; end of first 12-week treatment period, for end stage renal disease patients)	hypercalcemia ([3]; patients exhibiting excessive suppression of serum PTH, corrected by dosage reduction)	circulating levels of 1α,25-(OH)2D2 ([4]; blood samples of patients treated with 1α,24-(OH)2D2)	dose dependence of levels of circulating 1α,24-(OH)2D2 ([4]; human, in vivo)	maximum levels of circulating 1α,24-(OH)2D2 ([4]; human, in vivo)	serum and urine calcium ([4]; human, in vivo)	progression of metastatic disease (CAT scans, X-rays, bone scans) ([4]; higher dosage (1.0 times the MTD))	progression of metastatic disease (CAT scans, X-rays, bone scans) ([4]; lower dosage (0.5 times the MTD))	bone pain associated with metastatic disease [4, 5]
C=C1/C(=C\C=C2/CCC[C@]3(C)[C@@H]([C@H](C)/C=C/[C@H](C)C(C)C)CC[C@@H]23)C[C@@H](O)C[C@@H]1O [1α-OH-vitamin D2, 1α-hydroxyvitamin D2]	stable disease and partial or complete remission in many patients	stable disease or partial remission in many patients	significantly diminished	significantly reduce PTH levels	insignificant incidence	effective in reducing serum PTH levels	less than 50 % of pretreatment levels	safer than currently used therapies	normal or near normal	transient mild hypercalcemia is observed							
C=C1/C(=C\C=C2/CCC[C@]3(C)[C@@H]([C@H](C)/C=C/C(C)(O)C(C)C)CC[C@@H]23)C[C@H](O)C[C@H]1O (stereo partly drawn) [1α,24-(OH)2D2, 1α,24-dihydroxyvitamin D2]											suppressed, often to undetectable levels	increase proportionately with the dosage administered	above 100 pg/mL	elevated in a dose responsive manner	stable disease and partial or complete remission in many patients	stable disease or partial remission in many patients	significantly diminished
